Assay [1] has as its system epidermal keratinocytes of human neonates. Nature of the assay: Oxytocin release by differentiated keratinocytes after ATP gamma s addition (ELISA of culture medium). The class given is cell-based. How it is done: The keratinocytes used herein were epidermal keratinocytes of human neonates up to a passage number of 4 (Kurabo Industries Ltd.). The culture medium was Defined Keratinocyte-SFM (Invitrogen Japan K.K.). The keratinocytes were grown to confluence in 10-cm dishes at 37° C. for several days with the culture medium replaced on alternate days, and then the calcium chloride concentration in the culture medium was increased to 1.8 mM thereby inducing differentiation. After a lapse of 45 hours, adenosine-5′-(3-thio)triphosphoric acid tetralithium salt (Sigma Co., hereinafter referred to as “ATP gamma s-Li”) was added to each dish so as to make the final concentrations of 0, 10, 30, 100, and 300 μM, and the incubation of culture was continued at 37° C. The culture medium was collected 10 minutes after the addition of ATP gamma s, and the amount of oxytocin was measured with the ELISA method.
Oxytocin in the collected culture medium was purified and concentrated using a reversed phase column (C18 Sep-pak Light, Waters Co.), and eluted with an aqueous solution containing 60% acetonitrile and 0.1% trifluoroacetic acid. More specifically, the column eluate fraction containing oxytocin was freeze-dried, and dissolved again in a small amount of buffer solution (included in the EIA kit), and the oxytocin in the culture medium was concentrated at least 20 fold. Thereafter, the oxytocin concentration in the concentrated oxytocin solution was measured by the competitive ELISA method using Oxytocin EIA Kit (Assay Designs, Inc). The measurement procedure described in the instruction manual attached to the kit was followed. […] The absorbance of the color reaction by alkaline phosphatase was measured, and a semilogarithmic standard curve was generated by plotting the absorbance change due to the competitive inhibition against the known amount of oxytocin. The standard curve was used to determine the amount of oxytocin corresponding to the absorbance of the sample. […]

The test system of another assay is keratinocytes. To be noted: added to keratinocytes; J. Clin. Invest. (1992) 90, 42-51; Biochem. J. (2004) 380, 329-338; cited from earlier work.

Here are results for 3 molecules from US8247382B2, “Method for increasing oxytocin release in the epidermis” (Shiseido Company, Ltd., priority 2008, dated 2012).

Counter-ions that a name gives are not always drawn.

`Nc1ncnc2c1ncn2[C@@H]1O[C@H](COP(=O)(O)OP(=O)(O)OP(O)(O)=S)[C@@H](O)[C@H]1O` [ATP gamma s, adenosine-5′-(3-thio)triphosphoric acid tetralithium salt]: the “change of oxytocin concentration in the culture media with ATP gamma s concentration” value in assay [1] (0, 10, 30, 100, 300 μM ATP gamma s, 10 minutes, no EGTA) was “increased with increases of ATP gamma s”. The “oxytocin concentration in the culture medium” value in assay [1] (300 μM ATP gamma s, medium collected 10 minutes after addition, 37° C., ELISA) is “exceeded 7 pg/mL”. Moreover, the “Ca2+ concentration in the keratinocytes” value in the assay on keratinocytes is on record as “increase the Ca^2+ concentration in the keratinocytes in a concentration-dependent manner”. Turning to `Nc1ncnc2c1ncn2[C@@H]1O[C@H](COP(=O)(O)OP(=O)(O)OP(=O)(O)O)[C@@H](O)[C@H]1O` [ATP], the “Ca2+ concentration in the keratinocytes” value with keratinocytes is “increase the Ca^2+ concentration in the keratinocytes in a concentration-dependent manner”. In the case of `O=C(O)CN(CCOCCOCCN(CC(=O)O)CC(=O)O)CC(=O)O` [EGTA, ethylene glycol bis(2-aminoethyl ether) tetraacetic acid], the “effect of EGTA on the increase of oxytocin concentration with increases of ATP gamma s” value in assay [1] (2 mM EGTA added 5 minutes before ATP gamma s) is “inhibited”.
